Among the data in ChEMBL document CHEMBL2331217, “Evolvosides C–E, flavonol-4'-O-triglycosides from evolvulus alsinoides and their anti-stress activity [corrected]” (2013) are Activity values, retold here.

Assay type in all cases: functional
Assay [1] has as its system Rattus norvegicus. Description: Anti-stress activity in Sprague-Dawley rat assessed as change in acute stress-induced plasma corticosterone level at 40 mg/kg, po qd for 3 days prior to acute stress induction measured after 150 mins by HPLC/UV analysis (reference value: 511.2 +/- 23.2 ng/ml).
The subject of assay [2] is Rattus norvegicus. As to the kind of experiment: Anti-stress activity in Sprague-Dawley rat assessed as change in acute stress-induced plasma creatine kinase level at 40 mg/kg, po qd for 3 days prior to acute stress induction measured after 150 mins (reference value: 1018 +/- 31.43 mg/dl).
The subject of assay [3] is Rattus norvegicus. Description: Anti-stress activity in Sprague-Dawley rat assessed as change in acute stress-induced plasma glucose level at 40 mg/kg, po qd for 3 days prior to acute stress induction measured after 150 mins (reference value: 154.7 +/- 4.38 mg/dl).
For assay [4], the system named is Rattus norvegicus. Description: Anti-stress activity in Sprague-Dawley rat assessed as change in acute stress-induced adrenal gland weight at 40 mg/kg, po qd for 3 days prior to acute stress induction measured after 150 mins (reference value: 10.2 +/- 0.84 mg/kg).

Regarding `O=c1c(O)c(-c2ccc(O[C@@H]3O[C@H](CO)[C@@H](O)[C@H](O)[C@H]3O[C@@H]3O[C@H](CO)[C@@H](O)[C@H](O)[C@H]3O)cc2)oc2cc(O)cc(O)c12`, the Activity in assay [1] was found to be 458.2 ng/mL; in assay [2] it was 1078 mg/dL; in assay [3] it was 113.1 mg/dL; in assay [4], 10.91 mg/kg.

On to `C[C@@H]1O[C@@H](OC[C@H]2O[C@@H](Oc3ccc(-c4oc5cc(O)cc(O)c5c(=O)c4O)cc3)[C@H](O)[C@@H](O)[C@@H]2O)[C@H](O[C@@H]2O[C@H](CO)[C@@H](O)[C@H](O)[C@H]2O)[C@H](O)[C@H]1O` [EVOLVOSIDE C], for which the Activity in assay [1] was determined as 233.3 ng/mL; in assay [2], 385.3 mg/dL; in assay [3] it was 80.17 mg/dL; in assay [4] it was 7.11 mg/kg.

Turning to `COc1cc(O)c2c(=O)c(O)c(-c3ccc(O[C@@H]4O[C@H](CO[C@@H]5O[C@@H](C)[C@H](O)[C@@H](O)[C@H]5O[C@@H]5O[C@H](CO)[C@@H](O)[C@H](O)[C@H]5O)[C@@H](O)[C@H](O)[C@H]4O)cc3)oc2c1` [EVOLVOSIDE D], the Activity in assay [1] stood at 241.7 ng/mL; in assay [2], 405.4 mg/dL; in assay [3] it was 95.13 mg/dL; in assay [4], 8.23 mg/kg.

With `C[C@@H]1O[C@@H](OC[C@H]2O[C@@H](Oc3ccc(-c4oc5cc(O)cc(O)c5c(=O)c4O)cc3)[C@H](O)[C@@H](O)[C@@H]2O)[C@H](O)[C@H](O)[C@H]1O`, the Activity in assay [1] worked out at 239.2 ng/mL; in assay [2], 521.4 mg/dL; in assay [3], 105.13 mg/dL; in assay [4], 8.47 mg/kg.

On to `O=c1cc(-c2ccc(O)cc2)oc2c([C@@H]3O[C@H](CO)[C@@H](O)[C@H](O)[C@H]3O)c(O)cc(O)c12`, for which the Activity in assay [1] was 439 ng/mL; in assay [2], 822 mg/dL; in assay [3], 92.1 mg/dL; in assay [4], 9.78 mg/kg.

Turning to `COc1cc(OC)c2c(=O)c(O)c(-c3ccc(O[C@@H]4O[C@H](CO[C@@H]5O[C@@H](C)[C@H](O)[C@@H](O)[C@H]5O[C@@H]5O[C@H](CO)[C@@H](O)[C@H](O)[C@H]5O)[C@@H](O)[C@H](O)[C@H]4O)cc3)oc2c1` [EVOLVOSIDE E], the Activity worked out at 252.6 ng/mL in assay [1] and 413.7 mg/dL in assay [2].
